Experimental data published in patent US20140024839A1, “FULLERENE DERIVATIVE, AND METHOD OF PREPARING THE SAME” (RICOH COMPANY, LTD., priority 2012, published 2014).

Assay: Solubility in o-dichlorobenzene (saturated solution, HPLC with standard curves)
Type: physicochemical
Conditions: saturated o-dichlorobenzene solution at 25° C., filtered 0.45 μm, HPLC 254 nm
Protocol: Solubilities of the fullerene derivatives having the formulae (1a) to (5a) of the present invention in Examples 1 to 5 and the fullero pyrrolidine in Application Examples 1 to 5 in o-dichlorobenzene were evaluated by the following method. A 0.1 mM o-dichlorobenzene solution and a 1.0 mM o-dichlorobenzene solution of each of the fullerene derivatives and the fullero pyrrolidine were prepared, and diluted fivefold with THF for HPLC. Ten (10) μL of the diluted solution was analyzed by a high-speed liquid chromatograph (LC-2010HT from Shimadzu Corp.; developing solvent: THF/ion-exchanged water=60/40; analysis time: 60 min; and detection wavelength: 254 nm) to prepare a chromatogram. Standard curves of the known concentrations (0.1 mM and 1.0 mM) were obtained therefrom. Next, a saturated o-dichlorobenzene solution of each of the fullerene derivatives and the fullero pyrrolidine were prepared at 25° C. After the saturated solution was filtered with a 0.45 μm filter, it was diluted hundredfold with THF for HPLC. Ten (10) μL of the diluted solution was analyzed by the same method mentioned above to prepare a chromatogram. A weight of the fullerene derivative dissolved in 1 mL of o-dichlorobenzene was determined as solubility using a peak area value of the chromatogram from the saturated solution and the standard curves.

| Compound | Weight of the fullerene derivative dissolved in 1 mL of o-dichlorobenzene [mg] |
| --- | --- |
| CCCCCCCCCC1N(c2ccc(OC(=O)OC(C)(C)C)cc2)CC23C4=c5c6c7c8c9c%10c%11c%12c%13c%14c%15c%16c(c5c(c%15%12)c%106)C12C1C%162CC15c1c6c%10c%12c%15c%16c%17c%18c%19c%20c%21c%22c%23c%24c(c1c%12c(c%21%24)c%19%15)C5C3C%23C4C7C%22C8C%20C%18C9C%11C%17C%13C%16C%10C%14C62 (stereo not drawn) [formula (4a)] | 159 |
| CCCCCCCCCCCCC1N(c2ccc(OC(=O)OC(C)(C)C)cc2)CC23C4=c5c6c7c8c9c%10c%11c%12c%13c%14c%15c%16c(c5c(c%15%12)c%106)C12C1C%162CC15c1c6c%10c%12c%15c%16c%17c%18c%19c%20c%21c%22c%23c%24c(c1c%12c(c%21%24)c%19%15)C5C3C%23C4C7C%22C8C%20C%18C9C%11C%17C%13C%16C%10C%14C62 (stereo not drawn) [formula (5a)] | 280 |
| CC(C)(C)OC(=O)Oc1ccc(N2CC34C5=c6c7c8c9c%10c%11c%12c%13c%14c%15c%16c%17c(c6c(c%16%13)c%117)C3(C2C(C)(C)C)C2C%173CC26c2c7c%11c%13c%16c2c2c%17c%18c%19c%20c%21c%22c%23c(c-%13c%21c%18%16)C(C%14C%23C%12C%10C%22C%20C9C9C8C5C(C%17C%199)C4C26)C%11C%15C73)cc1 (stereo not drawn) [formula (3a)] | 107 |
